For one data set, the system named is ATCC 700603. The experiment in a line: In vitro MIC, broth micro dilution. It is filed as cell-based. Conditions: ATCC700603; Staphylococcus pyogens ATCC 700603. The procedure:
(§1) The in vitro (MIC) antibacterial activity of the compounds against susceptible Gram-positive, multidrug resistant Gram-positive and Gram-negative was tested as growth inhibition with the use of broth micro dilution method according to the guidelines of Clinical and Laboratory Standards Institute (formerly National Committee for Clinical Laboratory Standards). Compounds were dissolved in DMSO and water was added to get stock solution in 80% DMSO. The working solution was prepared by diluting the stock solution 1:10 times in 4-8% DMSO in water or medium, and the dissolved compounds were evaluated in the concentrations of 0.125, 0.25, 0.5, 1, 2, 4, 8, and 16 μg/mL and the concentration was finally expressed in μM.

Data set [1] has as its system Bacillus cereus ATCC 11778. Briefly: In vitro MIC, broth micro dilution. The class given is cell-based. Conditions: ATCC11778. The procedure:
as §1

Data set [2] concerns Bacillus pumilis ATCC 14884. Briefly: In vitro MIC, broth micro dilution. It is filed as cell-based. The note with it: ATCC14884. The procedure: as §1
Data set [3] concerns Enterococcus faecalis ATCC 14506. The experiment in a line: In vitro MIC, broth micro dilution. The class given is cell-based. The note with it: ATCC14506. The procedure:
as §1

Data set [4] relates to Enterococcus faecalis ATCC 35550. Briefly: In vitro MIC, broth micro dilution. It is filed as cell-based. Conditions: ATCC35550. The procedure: as §1
For data set [5], the system named is Enterococcus faecalis ATCC 700802. Briefly: In vitro MIC, broth micro dilution. The note with it: ATCC700802. The class given is cell-based. The procedure: as §1
In data set [6] the test system is Enterococcus faecium ATCC 51559. Briefly: In vitro MIC, broth micro dilution. Conditions: ATCC51559. It is filed as cell-based. The procedure:
as §1

Data set [7] deals with Enterococcus faecium ATCC 700221. Briefly: In vitro MIC, broth micro dilution. The class given is cell-based. Conditions: ATCC700221. The procedure: as §1
For data set [8], the system named is Klebsiella pneumoniae ATCC 10031. Briefly: In vitro MIC, broth micro dilution. It is filed as cell-based. Conditions: ATCC10031. The procedure: as §1
Data set [9] has as its system Klebsiella pneumoniae ATCC 700571. The experiment in a line: In vitro MIC, broth micro dilution. It is filed as cell-based. Conditions: ATCC700571. The procedure:
as §1

For data set [10], the system named is Pseudomonas aeruginosa ATCC 27853. Briefly: In vitro MIC, broth micro dilution. The class given is cell-based. The note with it: ATCC27853. The procedure: as §1
Data set [11] concerns Staphylococcus aureus ATCC 14154. Briefly: In vitro MIC, broth micro dilution. It is filed as cell-based. The note with it: ATCC14154. The procedure:
as §1

The subject of data set [12] is Staphylococcus aureus ATCC 25923. Briefly: In vitro MIC, broth micro dilution. The class given is cell-based. Conditions: ATCC25923. The procedure:
as §1

The subject of data set [13] is Staphylococcus aureus ATCC 29213. Briefly: In vitro MIC, broth micro dilution. It is filed as cell-based. Conditions: ATCC29213. The procedure: as §1
Data set [14] concerns Staphylococcus aureus ATCC 700699. Briefly: In vitro MIC, broth micro dilution. It is filed as cell-based. The note with it: ATCC700699. The procedure: as §1
Data set [15] concerns Staphylococcus aureus ATCC 9144. The experiment in a line: In vitro MIC, broth micro dilution. The class given is cell-based. The note with it: ATCC9144. The procedure:
as §1

Data set [16] concerns Staphylococcus epidermidis ATCC 155. The experiment in a line: In vitro MIC, broth micro dilution. The class given is cell-based. Conditions: ATCC155. The procedure:
as §1

In data set [17] the test system is Streptococcus pneumoniae ATCC 700904. Briefly: In vitro MIC, broth micro dilution. The class given is cell-based. The note with it: ATCC700904. The procedure:
as §1

The subject of data set [18] is Streptococcus pyogens ATCC 14289. The experiment in a line: In vitro MIC, broth micro dilution. The class given is cell-based. The note with it: ATCC14289. The procedure:
as §1

Another data set is described as follows: in vivo. The note with it: male, Sprague-Dawley, rat, po, 30 mg/kg.

Values after ≈ are worked out from the molar mass of the structure shown. Bounds are passed on as bounds.

For `COc1ccc2c(c1)CCC(CN1CCN(c3cc4c(cc3F)c(=O)c(C(=O)O)cn4C3CC3)CC1)C2=O` (centres unmarked) [Compound 1, 1-Cyclopropyl-6-fluoro-7-[4-(6-methoxy-1-oxo-1,2,3,4-tetrahydro-naphthalen-2-ylmethyl)-piperazin-1-yl]-4-oxo-1,4-dihydro-quinoline-3-carboxylic acid], the minimum inhibitory concentration (MIC) (in general, the smallest concentration in the dilution series that meets the test's criterion for growth inhibition) against ATCC 700603 amounted to 12.5 µM (≈ 6.49 µg/mL); in data set [1], 3.12 µM (≈ 1.62 µg/mL); in [2], 1.56 µM (≈ 0.812 µg/mL); in data set [3], 12.5 µM (≈ 6.49 µg/mL); in data set [4], 3.12 µM (≈ 1.62 µg/mL); in data set [5] it was 12.5 µM (≈ 6.49 µg/mL). The minimum inhibitory concentration (MIC) in [6] is above 50 µM; in data set [7] it was 25 µM (≈ 13 µg/mL); in data set [8], at most 0.391 µM; in data set [9], 6.25 µM (≈ 3.25 µg/mL); in [10] it was 3.12 µM (≈ 1.62 µg/mL); in data set [11], 1.56 µM (≈ 0.812 µg/mL). Moreover, the MIC is 1.56 µM (≈ 0.812 µg/mL) in data set [12]; 3.12 µM (≈ 1.62 µg/mL) in data set [13]; above 50 µM in data set [14]; 1.56 µM (≈ 0.812 µg/mL) in [15]; 0.781 µM (≈ 0.406 µg/mL) in data set [16]; 3.12 µM (≈ 1.62 µg/mL) in [17]. Moreover, the MIC in [18] turned out to be 1.56 µM (≈ 0.812 µg/mL). For the same molecule, in the data set “in vivo”, the AUC (as a rule, the area under the concentration-time curve, a measure of exposure) is 85.8 ± 39.9 µg·h/mL. In “in vivo”, the Cmax (in general, the highest concentration seen after dosing) worked out at 10.6 ± 2.61 µg/mL. In the data set “in vivo”, the Tmax (in general, the time from dosing to the highest level) is 4 h. Besides, the half-life (as a rule, the time needed for the level to fall by half in the phase considered) in “in vivo” was 9.55 ± 2.83 h.
On to `O=C(O)c1cn(C2CC2)c2cc(N3CCN(CC4CCOc5cc(Cl)ccc5C4=O)CC3)c(F)cc2c1=O` (centres unmarked) [Compound 6, 7-[4-(8-Chloro-5-oxo-2,3,4,5-tetrahydro-benzo[b]oxepin-4-ylmethyl)-piperazin-1-yl]-1-cyclopropyl-6-fluoro-4-oxo-1,4-dihydro-quinoline-3-carboxylic acid], for which the minimal inhibitory concentration (MIC) in the data set on ATCC 700603 stood at 12.5 µM (≈ 6.75 µg/mL); in [1], 1.56 µM (≈ 0.844 µg/mL); in data set [2], 0.781 µM (≈ 0.422 µg/mL); in data set [3], 6.25 µM (≈ 3.37 µg/mL); in data set [4] it was 6.25 µM (≈ 3.37 µg/mL); in data set [5], 6.25 µM (≈ 3.37 µg/mL). Moreover, the minimal inhibitory concentration (MIC) in [6] is 50 µM (≈ 27 µg/mL); in data set [7], 50 µM (≈ 27 µg/mL); in [8], at most 0.391 µM; in [9], 1.56 µM (≈ 0.844 µg/mL); in [10] it was 0.781 µM (≈ 0.422 µg/mL); in data set [11], 1.56 µM (≈ 0.844 µg/mL). Moreover, the MIC in data set [12] is 0.781 µM (≈ 0.422 µg/mL); in [13], 1.56 µM (≈ 0.844 µg/mL); in [14], 25 µM (≈ 13.5 µg/mL); in [15], 0.781 µM (≈ 0.422 µg/mL); in data set [16] it was at most 0.391 µM; in data set [17], 3.12 µM (≈ 1.69 µg/mL). In [18], the MIC turned out to be 0.781 µM (≈ 0.422 µg/mL). This molecule also registered an AUC in “in vivo” of 7.4 ± 1.78 µg·h/mL. Moreover, the Cmax in the data set “in vivo” was 2.36 ± 1.07 µg/mL. In the data set “in vivo”, the Tmax worked out at 1.33 ± 0.53 h. In addition, in the data set “in vivo”, the half-life is 1.66 ± 0.73 h.
With `CCn1cc(C(=O)O)c(=O)c2cc(F)c(N3CCNCC3)cc21` [Norfloxacin, reference compound], the minimal inhibitory concentration (MIC) is above 50 µM against ATCC 700603; 3.12 µM (≈ 0.998 µg/mL) in [1]; 6.25 µM (≈ 2 µg/mL) in [2]; 25 µM (≈ 7.98 µg/mL) in data set [3]; 6.25 µM (≈ 2 µg/mL) in [4]; 25 µM (≈ 7.98 µg/mL) in data set [5]. Also, the MIC was above 50 µM in data set [6]; above 50 µM in data set [7]; at most 0.391 µM in data set [8]; 6.25 µM (≈ 2 µg/mL) in data set [9]; 3.12 µM (≈ 0.998 µg/mL) in data set [10]; 3.12 µM (≈ 0.998 µg/mL) in data set [11]. Moreover, the minimal inhibitory concentration (MIC) in data set [12] was 3.12 µM (≈ 0.998 µg/mL); in [13] it was 3.12 µM (≈ 0.998 µg/mL); in [14], above 50 µM; in data set [15] it was 1.56 µM (≈ 0.499 µg/mL); in [16] it was 0.781 µM (≈ 0.249 µg/mL); in data set [17] it was 1.56 µM (≈ 0.499 µg/mL). This molecule also had an MIC in [18] of 3.12 µM (≈ 0.998 µg/mL).
